Reference: patent US20130280392A1, “PROCESS FOR CONTROLLING MICROORGANISMS IN BEVERAGE PRODUCTS” (DeLaval Holding AB, priority 2011, published 2013)

What was measured:
[1] = tested on: Alicyclobacillus acidoterrestris ATCC 49025; test: Germicidal efficacy of PAA and chlorine dioxide in dilute nutrient solution, apple juice and carrot juice, MPN viability count; assay type: cell-based; details: for LR: 22° C., 10 minutes contact, inoculum 1.40×10^7 CFU/ml; for reduction in the bacteria: all treated samples of Table 3 (5 and 10 ppm; nutrient solution, apple juice, carrot juice)
Method: In this experiment, the germicidal efficacy of various concentrations of PAA and chlorine dioxide (by dilution of CDG Solution 3000™, CDG Environmental LLC) at 22° C. after 10 minutes of contact time was determined in a dilute nutrient solution (Tryptone pancreatic digest of casein 1.0 g/L and NaCl 8.5 g/L), apple juice, and carrot juice. Alicyclobacillus acidoterrestris ATCC 49025 was used as the inoculum at a concentration of 1.40×10^7 CFU/ml. After the subscribed contact time, the PAA was neutralized with D/E broth and chlorine dioxide with a peroxide neutralizer, and a viability count for each of the juices was performed using the most probable number technique (MPN). The results are shown in Table 3, and graphically in FIG. 5.

[2] = tested on: Alicyclobacillus acidoterrestris; test: Antimicrobial efficacy of PAA in organic apple and carrot juice, MPN viability count; assay type: cell-based; details: 22° C.
Method: In this experiment, the antimicrobial efficacy of PAA in organic apple and carrot juice was measured by challenging the juices with 1×10^7 CFU/ml of Alicyclobacillus acidoterrestris, a spore-forming thermophile commonly present in juice operations. Immediately following bacterial challenge, the juice was dosed with different concentrations of PAA and incubated at room temperature (22° C.) for 10 minutes without agitation. After the subscribed contact time, the PAA was neutralized with D/E broth and a viability count for each of the juices was performed using the most probable number technique (MPN).

[3] = Degradation of PAA in juices over time, residual PAA by titration with 0.1N sodium thiosulfate; assay type: physicochemical; details: for PAA concentration (below detectable limit): after 10 min at 195° F. (90.5° C.); for half-life at 100 ppm: room temperature
Method: The half life of PAA decreases with increasing temperature. The half life of 100 ppm solution of PAA in carrot juice (Brix=8.8) at room temperature is less than 20 min. Similarly, the half life of a 100 ppm solution of PAA in apple juice (Brix=11.4) at room temperature is less than 30 min. After 10 min at 195° F. (90.5° C.), the PAA concentration of a 20 ppm solution of PAA in either carrot (Brix=8.8) or apple juice (Brix=11.4) is below the detectable limit of 0.89 ppm by titration with 0.1N sodium thiosulfate. Thus, when the juice is pasteurized and sent to an evaporator for concentration, any remaining PAA in solution would be converted to acetic acid, water, and oxygen, thereby leaving no or substantially no PAA remaining in the final juice product 32. Briefly, during the titration process, any oxidizing species present in the sample converts a solution of potassium iodide to iodine in the presence of ammonium paramolybdate and phosphoric acid. Subsequently, a starch solution is added to form a deep blue color upon binding iodine. The PAA concentration can be calculated based on the volume of titrant needed to revert the deep blue color.
In this experiment, several juices were dosed with peracetic acid (PAA) (peroxyacetic acid 5.6%, hydrogen peroxide 26.5%) and kept at a controlled temperature (22° C. or 90° C.) for a given period of time to determine how the PAA would degrade over time. At the end of the given time period, the level of PAA remaining in the juice was measured by titration with 0.1N sodium thiosulfate. It can be seen that the PAA decomposed quite rapidly in the various juices, particularly when exposed to elevated temperatures.

[4] = Chlorine dioxide demand of apple and carrot juice (HACH DPD Method #10126); assay type: physicochemical; details: 22° C., 10 minutes
Method: In this experiment, apple juice and carrot juice were exposed to pure and stable chlorine dioxide (CDG Solution 3000™, CDG Environmental, LLC) in order to determine their respective chlorine dioxide demands, as determined by HACH DPD Method for Chlorine dioxide (Method #10126). The juice samples were exposed to the chlorine dioxide under room temperature conditions (22° C.), and then the residual concentrations determined 10 minutes after exposure. It can be seen that the chlorine dioxide demands were relatively high.

[5] = 5 ppm, dilute nutrient solution
[6] = 10 ppm, dilute nutrient solution
[7] = apple juice, Brix 11.4, exposed concentration 5 ppm
[8] = apple juice, Brix 11.4, exposed concentration 10 ppm
[9] = apple juice, Brix 11.4, exposed concentration 25 ppm
[10] = apple juice, Brix 11.4, exposed concentration 60 ppm
[11] = carrot juice, Brix 8.8, exposed concentration 5 ppm
[12] = carrot juice, Brix 8.8, exposed concentration 10 ppm
[13] = carrot juice, Brix 8.8, exposed concentration 25 ppm
[14] = carrot juice, Brix 8.8, exposed concentration 60 ppm

Question: For `CC(=O)OO` [PAA, peracetic acid], which LR ([1]; 5 ppm, apple juice) is on record?
Answer: 4.34

Question: What about the LR ([1]; 5 ppm, carrot juice) of the same compound?
Answer: 4.18

Question: What about the LR [1, 5] of the same compound?
Answer: 4.18

Question: And the LR ([1]; 10 ppm, apple juice)?
Answer: 4.48

Question: And the LR ([1]; 10 ppm, carrot juice)?
Answer: 4.34

Question: And the LR [1, 6]?
Answer: 4.51

Question: And the “reduction in the bacteria” value [1]?
Answer: > 4 log

Question: What about the “loss in cell viability” value ([2]; PAA dose as low as 0.35 ppm, 10 minutes) of the same compound?
Answer: substantial loss in cell viability

Question: What about the “reduction in the bacteria” value ([2]; all PAA-treated samples, 1×10^7 CFU/ml challenge, 10 minutes (FIG. 4)) of the same compound?
Answer: > 4 log

Question: And the “PAA concentration (below detectable limit)” value ([3]; 20 ppm PAA in apple juice (Brix=11.4))?
Answer: < 0.89 ppm

Question: And the “PAA concentration (below detectable limit)” value ([3]; 20 ppm PAA in carrot juice (Brix=8.8))?
Answer: < 0.89 ppm

Question: What about the half-life at 100 ppm ([3]; 100 ppm solution of PAA in apple juice (Brix=11.4)) of the same compound?
Answer: < 30 min

Question: What about the half-life at 100 ppm ([3]; 100 ppm solution of PAA in carrot juice (Brix=8.8)) of the same compound?
Answer: < 20 min

Question: What about the PAA read ([3]; apple juice, Brix 11.4, PAA dosed 20 ppm, 90° C., 10 min, followed by 5 min in ice) of the same compound?
Answer: <0.98 ppm

Question: What about the PAA read ([3]; apple juice, Brix 11.4, PAA dosed 100 ppm, 22° C., 60 min) of the same compound?
Answer: 19.6 ppm

Question: And the PAA read ([3]; apple juice, Brix 11.4, PAA dosed 100 ppm, 90° C., 10 min, followed by 5 min in ice)?
Answer: 15.7 ppm

Question: What about the PAA read ([3]; carrot juice, Brix 8.8, PAA dosed 20 ppm, 90° C., 10 min, followed by 5 min in ice) of the same compound?
Answer: <0.98 ppm

Question: What about the PAA read ([3]; carrot juice, Brix 8.8, PAA dosed 100 ppm, 22° C., 60 min) of the same compound?
Answer: 3.92 ppm

Question: And the PAA read ([3]; carrot juice, Brix 8.8, PAA dosed 100 ppm, 90° C., 10 min, followed by 5 min in ice)?
Answer: 2.94 ppm

Question: Which results are given for `[O][Cl+][O-]` [chlorine dioxide]?
Answer: LR ([1]; 5 ppm, apple juice): 0.65; LR ([1]; 5 ppm, carrot juice): 1.12; LR [1, 5]: 1.34; LR ([1]; 10 ppm, apple juice): 1.18; LR ([1]; 10 ppm, carrot juice): 1.57; LR [1, 6]: 1.24; reduction in the bacteria [1]: ~1 log; Demand [4, 7]: >4.95 ppm; Read Concentration [4, 7]: <0.05 ppm; Demand [4, 8]: 9.32 ppm; Read Concentration [4, 8]: 0.68 ppm; Demand [4, 9]: 24.3 ppm; Read Concentration [4, 9]: 0.7 ppm; Demand [4, 10]: 57.8 ppm; Read Concentration [4, 10]: 2.2 ppm; Demand [4, 11]: >4.95 ppm; Read Concentration [4, 11]: <0.05 ppm; Demand [4, 12]: >9.95 ppm; Read Concentration [4, 12]: <0.05 ppm; Demand [4, 13]: >24.97 ppm; Read Concentration [4, 13]: <0.05 ppm; Demand [4, 14]: 59.87 ppm; Read Concentration [4, 14]: 0.13 ppm
